Laboratory results published in patent publication US11384062B2 (CombiPhos Catalysts, Inc., priority 2017, dated 2022).

Assays:
[1] = test system: HL-60(TB); conditions: 10 μM single dose; Leukemia HL-60(TB)
[2] = test system: HS 578T; conditions: 10 μM single dose; Breast Cancer HS 578T
From the text: (§1) The test compounds were screened for anticancer activity at the Development Therapeutic Program (DTP), National Cancer Institute (NCI), USA, against a full NCI 59 cell line panel (six cell lines of leukemia, nine cell lines of lung cancer, seven cell lines of colon cancer, six cell lines of CNS cancer, nine cell lines of melanoma, seven cell lines of ovarian cancer, seven cell lines of renal cancer, two cell lines of prostate cancer, and six cell lines of breast cancer) representing nine human systems in total as leukemia, melanoma, and cancers of the lungs, colon, brain, breast, ovary, kidney, and prostate, according to the applied protocol. A primary in vitro one dose anticancer assay was performed at a single dose (10 μM) against the full NCI 59 cell line panel. The one dose data was reported as a mean graph of the percent growth of treated cells. The number reported for the single dose assay was growth relative to the no drug control and relative to the initial number of cells at time 0. […] A value of −40 means 40% lethality. A value of −100 means all cells are dead.

[3] = test system: OVCAR-4; conditions: 10 μM single dose; Ovarian Cancer OVCAR-4
From the text: as §1

[4] = test system: MCF7; conditions: 10 μM single dose; Breast Cancer MCF7
From the text: as §1

[5] = test system: SK-MEL-2; conditions: 10 μM single dose; Melanoma SK-MEL-2
From the text: as §1

[6] = test system: CCRF-CEM; conditions: 10 μM single dose; Leukemia CCRF-CEM
From the text: as §1

[7] = test system: SF-268; conditions: 10 μM single dose; CNS Cancer SF-268
From the text: as §1

[8] = test system: NCI-H460; conditions: 10 μM single dose; Non-Small Cell Lung Cancer NCI-H460
From the text: as §1

[9] = test system: COLO 205; conditions: 10 μM single dose; Colon Cancer COLO 205
From the text: as §1

[10] = test system: EKVX; conditions: 10 μM single dose; Non-Small Cell Lung Cancer EKVX
From the text: as §1

[11] = test system: NCI-H23; conditions: 10 μM single dose; Non-Small Cell Lung Cancer NCI-H23
From the text: as §1

[12] = test system: OVCAR-3; conditions: 10 μM single dose; Ovarian Cancer OVCAR-3
From the text: as §1

[13] = test system: K-562; conditions: 10 μM single dose; Leukemia K-562
From the text: as §1

[14] = test system: SNB-19; conditions: 10 μM single dose; CNS Cancer SNB-19
From the text: as §1

[15] = test system: U251; conditions: 10 μM single dose; CNS Cancer U251
From the text: as §1

[16] = test system: UO-31; conditions: 10 μM single dose; Renal Cancer UO-31
From the text: as §1

[17] = test system: MDA-MB-231/ATCC; conditions: 10 μM single dose; Breast Cancer MDA-MB-231/ATCC
From the text: as §1

[18] = test system: LOX IMVI; conditions: 10 μM single dose; Melanoma LOX IMVI
From the text: as §1

[19] = test system: SF-295; conditions: 10 μM single dose; CNS Cancer SF-295
From the text: as §1

[20] = test system: KM12; conditions: 10 μM single dose; Colon Cancer KM12
From the text: as §1

[21] = test system: T-47D; conditions: 10 μM single dose; Breast Cancer T-47D
From the text: as §1

[22] = test system: SK-OV-3; conditions: 10 μM single dose; Ovarian Cancer SK-OV-3
From the text: as §1

[23] = test system: M14; conditions: 10 μM single dose; Melanoma M14
From the text: as §1

[24] = test system: HCT-116; conditions: 10 μM single dose; Colon Cancer HCT-116
From the text: as §1

[25] = test system: MDA-MB-435; conditions: 10 μM single dose; Melanoma MDA-MB-435
From the text: as §1

[26] = test system: HOP-92; conditions: 10 μM single dose; Non-Small Cell Lung Cancer HOP-92
From the text: as §1

[27] = test system: PC-3; conditions: 10 μM single dose; Prostate Cancer PC-3
From the text: as §1

[28] = test system: DU-145; conditions: 10 μM single dose; Prostate Cancer DU-145
From the text: as §1

[29] = test system: UACC-257; conditions: 10 μM single dose; Melanoma UACC-257
From the text: as §1

[30] = test system: SN12C; conditions: 10 μM single dose; Renal Cancer SN12C
From the text: as §1

[31] = test system: UACC-62; conditions: 10 μM single dose; Melanoma UACC-62
From the text: as §1

[32] = test system: SK-MEL-5; conditions: 10 μM single dose; Melanoma SK-MEL-5
From the text: as §1

[33] = test system: ACHN; conditions: 10 μM single dose; Renal Cancer ACHN
From the text: as §1

[34] = test system: SF-539; conditions: 10 μM single dose; CNS Cancer SF-539
From the text: as §1

[35] = test system: NCI-H226; conditions: 10 μM single dose; Non-Small Cell Lung Cancer NCI-H226
From the text: as §1

[36] = test system: NCI-H322M; conditions: 10 μM single dose; Non-Small Cell Lung Cancer NCI-H322M
From the text: as §1

[37] = test system: OVCAR-8; conditions: 10 μM single dose; Ovarian Cancer OVCAR-8
From the text: as §1

Q: With [2H]c1c([2H])c(-n2nc3c(C(N)=O)cccc3c2[2H])c([2H])c([2H])c1C1CCCNC1 (racemic) [Example 11, 2-(4-(piperidin-3-yl)phenyl-2,3,5,6-d4)-2H-indazole-3-d-7-carboxamide] as the compound, how does the “Growth Percentage” value [1] read?
A: The value was 69.13%.

Q: What about the “Growth Percentage” value [2] of the same compound?
A: The value was 81.82%.

Q: What about the “Growth Percentage” value [3] of the same compound?
A: Its value is 103.47%.

Q: What about the “Growth Percentage” value [4] of the same compound?
A: The value was 69.21%.

Q: And the “Growth Percentage” value [5]?
A: Its value is 108.51%.

Q: And the “Growth Percentage” value [6]?
A: Its value is 68.34%.

Q: And the “Growth Percentage” value [7]?
A: The value was 82.89%.

Q: What about the “Growth Percentage” value [8] of the same compound?
A: Its value is 80.76%.

Q: And the “Growth Percentage” value [9]?
A: Its value is 79.11%.

Q: And the “Growth Percentage” value [10]?
A: The value was 91.65%.

Q: What about the “Growth Percentage” value [11] of the same compound?
A: Its value is 82.01%.

Q: And the “Growth Percentage” value [12]?
A: Its value is 97.70%.

Q: What about the “Growth Percentage” value [13] of the same compound?
A: Its value is 87.94%.

Q: What about the “Growth Percentage” value [14] of the same compound?
A: The value was 85.34%.

Q: And the “Growth Percentage” value [15]?
A: The value was 92.89%.

Q: And the “Growth Percentage” value [16]?
A: Its value is 79.89%.

Q: And the “Growth Percentage” value [17]?
A: Its value is 76.99%.

Q: And the “Growth Percentage” value [18]?
A: The value was 71.49%.

Q: What about the “Growth Percentage” value [19] of the same compound?
A: Its value is 90.94%.

Q: What about the “Growth Percentage” value [20] of the same compound?
A: Its value is 83.99%.

Q: What about the “Growth Percentage” value [21] of the same compound?
A: The value was 90.97%.

Q: What about the “Growth Percentage” value [22] of the same compound?
A: Its value is 94.12%.

Q: And the “Growth Percentage” value [23]?
A: Its value is 90.64%.

Q: And the “Growth Percentage” value [24]?
A: The value was 81.62%.

Q: What about the “Growth Percentage” value [25] of the same compound?
A: Its value is 91.99%.

Q: And the “Growth Percentage” value [26]?
A: Its value is 79.03%.

Q: What about the “Growth Percentage” value [27] of the same compound?
A: Its value is 68.67%.

Q: And the “Growth Percentage” value [28]?
A: The value was 87.51%.

Q: And the “Growth Percentage” value [29]?
A: Its value is 102.12%.

Q: And the “Growth Percentage” value [30]?
A: The value was 81.90%.

Q: And the “Growth Percentage” value [31]?
A: The value was 76.75%.

Q: And the “Growth Percentage” value [32]?
A: The value was 91.06%.

Q: What about the “Growth Percentage” value [33] of the same compound?
A: The value was 72.39%.

Q: And the “Growth Percentage” value [34]?
A: Its value is 77.48%.

Q: What about the “Growth Percentage” value [35] of the same compound?
A: Its value is 92.42%.

Q: And the “Growth Percentage” value [36]?
A: The value was 85.94%.

Q: What about the “Growth Percentage” value [37] of the same compound?
A: The value was 84.66%.
